Here are results for six molecules from ChEMBL document CHEMBL1201862, “PubChem BioAssay data set” (2004).

Each structure is given as a SMILES string.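 Test compounds were applied to cells in 96-well plates for 48 hours at 5 doses. GI50 = concentration required for 50% inhibition of growth.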 Active and inactive are the calls of the source. No stated cut-off is given here; in the data, active = GI50 up to about 1.1 µM and inactive = higher. A value given as a limit tells only on which side of the number the result lay.

Some test systems named below: LOX IMVI; SN12C; U-251; TK-10; HCT-116; PC-3; MDA-MB-435; MCF7; NCI-H460; NCI-H522; SK-MEL-2; ACHN; CAKI-1; MDA-N; HCT-15; MDA-MB-231; SK-MEL-28; SNB-19; IGROV-1; NCI-H226.
Common to all, as to test: NCI-60 cell line screen, 48 h

With `c1ccc2cc(OCC3CO3)c(OCC3CO3)cc2c1` (stereo not given), the GI50 in the test on LOX IMVI was 1.03 µM (active); in the test with SN12C, 2.37 µM (inactive); in the test with U-251, 2.9 µM (inactive); in the test with TK-10, 12.1 µM (inactive); with HCT-116, 1.3 µM (inactive); in the test with PC-3, 12.7 µM (inactive). The GI50 with MDA-MB-435 was 10.1 µM (inactive); with MCF7, 0.388 µM (active); in the test with NCI-H460, 4.2 µM (inactive); in the test on NCI-H522, 1.87 µM (inactive); with SK-MEL-2, 10.9 µM (inactive); in the test on ACHN, 2.18 µM (inactive). In addition, the GI50 with CAKI-1 is 4.09 µM (inactive); with MDA-N, 10.1 µM (inactive); with HCT-15 it was 4.63 µM; with MDA-MB-231, 14.5 µM (inactive); with SK-MEL-28 it was 11.9 µM (inactive); in the test on SNB-19, 5.3 µM (inactive). In addition, the GI50 in the test on IGROV-1 is 1.3 µM (inactive).
For the molecule `O=P1(c2ccccc2)c2ccccc2-c2ccccc21`, the GI50 is > 100 µM (inactive) in the test on LOX IMVI; > 100 µM (inactive) in the test with SN12C; > 100 µM (inactive) in the test with TK-10; 99.3 µM (inactive) with HCT-116; 55.3 µM (inactive) in the test on PC-3; > 100 µM (inactive) in the test with MDA-MB-435. The GI50 was > 100 µM (inactive) in the test on MCF7; > 100 µM (inactive) in the test on NCI-H522; > 100 µM (inactive) in the test with SK-MEL-2; 81.8 µM (inactive) in the test with CAKI-1; 97.7 µM (inactive) in the test with MDA-N; greater than 100 µM in the test on HCT-15. In addition, the GI50 in the test with MDA-MB-231, in the test with NCI-H226, in the test with SK-MEL-28, in the test with SNB-19 and in the test with IGROV-1 was > 100 µM (inactive) each time.
With `CC(O)C(O)C(O)C(/C=N\Nc1ccccc1)=N/Nc1ccccc1` (stereo not given), the GI50 was 4.58 µM (inactive) in the test with LOX IMVI; 16 µM (inactive) with SN12C; 13.9 µM (inactive) with U-251; 12.6 µM (inactive) in the test with TK-10; 15.3 µM (inactive) with HCT-116; 15.8 µM (inactive) in the test with PC-3. The GI50 was 13.4 µM (inactive) with MDA-MB-435; 10.5 µM (inactive) in the test with MCF7; 10.7 µM (inactive) in the test with NCI-H460; 8.09 µM (inactive) in the test on NCI-H522; 8.63 µM (inactive) with SK-MEL-2; 10.8 µM (inactive) in the test on ACHN. In addition, the GI50 in the test on CAKI-1 is 2.18 µM (inactive); in the test with MDA-N, 12.6 µM (inactive); in the test on HCT-15 it was 12.4 µM; in the test with MDA-MB-231 it was 12.3 µM (inactive); in the test on SK-MEL-28, 16.6 µM (inactive); in the test with SNB-19, 15.7 µM (inactive). For the same molecule, in the test on IGROV-1, the GI50 is 8.49 µM (inactive).
Take `COc1cc(-c2coc3c(OC)c(OC4OC(COC5OC(C)C(O)C(O)C5O)C(O)C(O)C4O)c(OC)c(O)c3c2=O)cc(C)c1O` (stereo not given): the GI50 with LOX IMVI was 16.5 µM (inactive); in the test on SN12C, 1.68 µM (inactive); with U-251 it was 15.5 µM (inactive); with TK-10, 34.8 µM (inactive); in the test on HCT-116, 0.185 µM (active); in the test on PC-3, 24.8 µM (inactive). Besides, the GI50 with MDA-MB-435 was 16 µM (inactive); in the test on MCF7 it was 12.3 µM (inactive); in the test with NCI-H460 it was 23.2 µM (inactive); with NCI-H522 it was 12.7 µM (inactive); in the test with SK-MEL-2 it was 23.8 µM (inactive); in the test on ACHN, 21.2 µM (inactive). The GI50 is 18 µM (inactive) in the test on CAKI-1; 0.873 µM (active) with MDA-N; 16.4 µM in the test on HCT-15; 32.5 µM (inactive) with MDA-MB-231; 15.1 µM (inactive) in the test with SK-MEL-28; 13.8 µM (inactive) in the test on SNB-19. Also, the GI50 in the test on IGROV-1 is 17 µM (inactive).
Consider `O=C(O)c1cc(NCc2cc(O)ccc2O)ccc1O` [LAVENDUSTIN C], for which the GI50 is > 100 µM (inactive) in the test with SN12C; > 100 µM (inactive) with U-251; > 100 µM (inactive) in the test with TK-10; 49.9 µM (inactive) in the test on HCT-116; > 100 µM (inactive) in the test on PC-3; 27 µM (inactive) in the test on MDA-MB-435. In addition, the GI50 with MCF7 is > 100 µM (inactive); in the test on NCI-H460 it was > 100 µM (inactive); with NCI-H522 it was 16.2 µM (inactive); with SK-MEL-2 it was > 100 µM (inactive); with ACHN, > 100 µM (inactive); in the test with CAKI-1 it was > 100 µM (inactive). For the same molecule, the GI50 is 24.8 µM (inactive) in the test with MDA-N; greater than 100 µM in the test on HCT-15; > 100 µM (inactive) with MDA-MB-231; > 100 µM (inactive) in the test with NCI-H226; > 100 µM (inactive) with SK-MEL-28; > 100 µM (inactive) in the test on SNB-19. For the same molecule, in the test with IGROV-1, the GI50 is > 100 µM (inactive).
With `O=c1c(O)c(-c2cc(O)c(O)c(O)c2)oc2cc(O)cc(O)c12` [MYRICETIN], the GI50 with LOX IMVI is 13.6 µM (inactive); with U-251 it was 18.7 µM (inactive); in the test with TK-10 it was > 100 µM (inactive); in the test on PC-3, > 100 µM (inactive); with MDA-MB-435 it was 17.7 µM (inactive); in the test with MCF7, 18.5 µM (inactive). Moreover, the GI50 in the test with NCI-H460 is 20.4 µM (inactive); in the test with NCI-H522, 68.1 µM (inactive); in the test on SK-MEL-2 it was > 100 µM (inactive); in the test with ACHN it was 79.8 µM (inactive); in the test with CAKI-1 it was 23.6 µM (inactive); in the test on MDA-N it was 10 µM (inactive). The GI50 was 24.8 µM in the test on HCT-15; 18.1 µM (inactive) in the test with MDA-MB-231; 25.6 µM (inactive) in the test with NCI-H226; > 100 µM (inactive) in the test with SK-MEL-28; 33.9 µM (inactive) in the test on IGROV-1.
